The results in this text go back to PMC12454639, “Direct disassembly of α-syn preformed fibrils into α-syn monomers by an all-D-peptide” (NPJ Parkinson's Disease, 2025).

“Also recorded” adds a separate entry of the source. Square brackets hold non-standard residues; d marks the D form. Peptide text beside a SMILES is read from it.

In one data set the test system is α-syn monomer. The experiment in a line: SDS–PAGE of fractionated de novo aggregation samples. The data set is classed as biochemical. Particulars: 10 µM α-syn, 5, 10, 20 µM SVD-1a, 7 days, silver staining. Here is the method: For small PFF pre incubation with or without SVD-1a (Fig. 4) samples were pre-incubated at 37 °C and 600 rpm for 72 h in PBS pH 7.4 with 0.05% sodium azide using protein low binding reaction tubes in a thermos shaker (Eppendorf GmbH, GE). For de novo aggregation analysis, each replicate was pre-incubated in PBS pH 7.4 with 0.05% sodium azide in a 96-well non-binding half-area plate (Corning, USA) in a FLUOStar platereader (BMG labtech, GE) with 300 rpm continuous orbital shaking in between reads, adding one borosilicate bead per well (d = 3 mm, Hilgenberg, GE, n = 7). 10 µM α-syn monomer was incubated with or without 5, 10 or 20 µM SVD-1a for 7 days. […] The α-syn concentration of the samples was then quantified using an α-syn-specific kit (Human α-Synuclein (Colorimetric), 448607, BioLegend, USA). […]
Supplementary Fig. 20: SDS-PAGE analysis of de novo aggregation samples at incubation endpoint in presence or absence of SVD-1a. 10 µM α-syn monomer was incubated with or without 5, 10 or 20 µM SVD-1a for 7d in a 96-well non-binding half-area plate (Corning, USA) in a FLUOStar platereader (BMG labtech, GE) with 300 rpm continuous orbital shaking in between reads adding one borosilicate bead per well (d = 3 mm, Hilgenberg, GE, n = 7). […] Retentate and flow through samples were analyzed using SDS-PAGE with silver staining. […]

Data set [1] has as its system α-synA53T–YFP cells (HEK293T).
Data set [2] deals with 15N-labeled full-length acetyl-α-syn. In words: NMR paramagnetic relaxation enhancement (PRE). The data set is classed as binding. Particulars: spin-labeled SVD-1a (SVD-1a_Cys_MTSL), 1:1 with α-syn, 10 °C. How it is done: The spin-labeled analog of SVD-1a was prepared by covalent attachment of MTSL (S-(1-oxyl-2,2,5,5-tetramethyl-2,5-dihydro-1H-pyrrol-3-yl)methyl methanesulfonothioate, Toronto Research Chemicals, USA) to the C-terminal D-cysteine residue of SVD-1a_Cys. MTSL was dissolved in DMF (N,N-dimethylformamide) with a concentration of 20 mM and diluted in 200 mM HEPES, pH 7.6, to a final concentration of 2 mM. 900 µl of the solution was then added to 1 mg of lyophilized SVD-1a_Cys to create a fivefold molar excess of MTSL compared to SVD-1a_Cys. […]
NMR paramagnetic relaxation enhancement (PRE) data were recorded on 25 µM ^15N-labeled full-length acetyl-α-syn in the presence of 25 µM paramagnetically labeled (but not isotopically enriched) SVD-1a_Cys_MTSL (using a MTSL spin-label covalently attached to the SVD-1a C-terminus), resulting in a 1:1 ratio of α-syn: SVD-1a. Intensities (Ipara) were extracted from 2D ^1H–^15N Best-TROSY NMR spectra recorded at 600 MHz and 10 °C, each with 128 scans per increment, resulting in a total experimental time of 16 h per spectrum. […] The diamagnetic reference spectra and intensities (Idia) were recorded back-to-back and under identical conditions as for the paramagnetic sample. […]

As for `CC[C@@H](C)[C@@H](NC(=O)[C@@H](Cc1c[nH]cn1)NC(=O)[C@@H](CCC(=O)O)NC(=O)[C@@H](CCC(N)=O)NC(=O)[C@@H](Cc1c[nH]c2ccccc12)NC(=O)[C@@H](Cc1ccc(O)cc1)NC(=O)[C@H](NC(=O)[C@@H](CCC(=O)O)NC(=O)[C@@H](Cc1c[nH]cn1)NC(=O)[C@H](NC(=O)[C@H]1CCCN1C(=O)[C@@H](CC(C)C)NC(=O)[C@H](N)CCCNC(=N)N)[C@H](C)O)[C@H](C)O)C(=O)N[C@H](Cc1c[nH]c2ccccc12)C(=O)N[C@H](Cc1c[nH]cn1)C(=O)N[C@H](C)C(=O)N[C@H](CCCNC(=N)N)C(=O)N[C@H](CCCNC(=N)N)C(=O)N[C@H](CCCNC(=N)N)C(=O)N[C@H](CCCNC(=N)N)C(=O)N[C@H](CCCNC(=N)N)C(N)=O` [SVD-1a] (H-[dR][dL][dP][dT][dH][dE][dT][dY][dW][dQ][dE][dH][dI][dW][dH][dA][dR][dR][dR][dR][dR]-NH2), in the data set with α-syn monomer, the “aggregate band in retentate / shift to flow-through” value is listed as “a progressive shift of α-syn from the retentate to the flow-through is observed; also recorded: the aggregate band intensity was substantially diminished”. The “cell viability, PFF-seeded α-synA53T–YFP cells” value in data set [1] is on record as “did not induce significantly different luminescence in comparison to unseeded cells or seeded cells without peptide treatment”. The “site of interaction with α-syn (PRE)” value in data set [2] was “interacts with the entire α-syn monomer, with the C-terminal part showing the strongest interaction”.
